Results on 2 compounds are retold here after article PMC13316043, “Structural basis of NSD2 degradation via targeted recruitment of SCF-FBXO22” (Nature Communications, 2026).

For this assay, the system named is FBXO22-NSD2 PWWP1 ternary complex. As to the kind of experiment: Size-exclusion chromatography to monitor ternary complex formation. The class given is binding, human. Here is the method: Formation of the SCF^FBXO22-UNC10088-NSD2 PWWP1 and SCF^FBXO22-UNC10415667-NSD2 PWWP1 ternary complexes was performed by incubating SKP1-FBXO22, CUL1-RBX1, NSD2 PWWP1, and UNC10088 or UNC10415667 at a 1:1:1:1 molar ratio for 4 h on ice. The SCF^FBXO22-UNC10088-NSD2 PWWP1-BACH1 BTB ternary complex was formed by incubating SKP1-FBXO22, CUL1-RBX1, NSD2 PWWP1, UNC10088, and BACH1 BTB at a 1:1:1:1:1.5 molar ratio for 1 h on ice. The incubated sample was loaded onto a Superdex 200 Increase SD200 column (Cytiva), equilibrated with 20 mM HEPES pH 8, 200 mM NaCl, 1 mM DTT, for size-exclusion chromatography, and fractions containing all subunits of the SCF^FBXO22-Degrader-NSD2 PWWP1 complex were pooled and concentrated. The SCF^FBXO22-UNC10088-NSD2 PWWP1, SCF^FBXO22-UNC10415667-NSD2 PWWP1, and SCF^FBXO22-UNC10088-NSD2 PWWP1-BACH1 BTB complexes were concentrated to 33 µM, 10.9 µM, and 4.1 µM, respectively, and flash frozen. […] In contrast, only the PWWP1 and BTB domains of NSD2 and BACH1, respectively, were used.
FBXO22 WT and variants were incubated on ice with NSD2 PWWP1 and either UNC10088 or UNC10415667 at 5 µM. After 1 h, the samples were centrifuged at 16,060 x g for 10 min at 4 °C. Each sample was examined for C326- and compound-dependent complex formation by comparing the SEC chromatograms and Coomassie-stained SDS-PAGE gels. […] These experiments were performed using a Superdex 200 Increase SD200 column (Cytiva) and 20 mM HEPES pH 8, 200 mM NaCl, 1 mM DTT.
(Size exclusion chromatography separates by hydrodynamic size, large species first.)

Turning to `O=C1COc2cc(C(=O)N(Cc3ccc(C(=O)Nc4ccc5c(c4)CCN(C(=O)CCCCC(O)S(=O)(=O)O)C5)cc3)C3CC3)ccc2N1` (centres unmarked) [UNC10088], the “ternary complex formation between FBXO22 and NSD2 PWWP1 by SEC” value is on record as “co-migrated together”. In the case of `O=Cc1ccc(C(=O)N2CCc3cc(NC(=O)c4ccc(CN(C(=O)c5ccc6c(c5)OCC(=O)N6)C5CC5)cc4)ccc3C2)cc1` [UNC10415667], the “ternary complex formation between FBXO22 and NSD2 PWWP1 by SEC” value was “stable complex”.
